How the values were obtained:
[1] = test system: OVCAR-5; assay: NCI-60 SRB screen; type: cell-based, human; conditions: Homo sapiens; OVCAR-5; single dose 10^−5 M; read-out: Growth inhibition (%)
[2] = test system: SF-539; assay: NCI-60 SRB screen; type: cell-based, human; conditions: Homo sapiens; SF-539; single dose 10^−5 M; read-out: Growth inhibition (%)
[3] = test system: A498; assay: NCI-60 SRB screen; type: cell-based, human; conditions: Homo sapiens; A498; single dose 10^−5 M; read-out: Growth inhibition (%)
[4] = test system: RXF 393; assay: NCI-60 SRB screen; type: cell-based, human; conditions: Homo sapiens; RXF 393; single dose 10^−5 M; read-out: Growth inhibition (%)
[5] = test system: SNB-75; assay: NCI-60 SRB screen; type: cell-based, human; conditions: Homo sapiens; SNB-75; single dose 10^−5 M; read-out: Growth inhibition (%)
[6] = test system: RPMI-8226; assay: NCI-60 SRB screen; type: cell-based; conditions: Homo sapiens; RPMI-8226; single dose 10^−5 M; read-out: Growth inhibition (%)
[7] = test system: SNB-19; assay: NCI-60 SRB screen; type: cell-based; conditions: Homo sapiens; SNB-19; single dose 10^−5 M; read-out: Growth inhibition (%)
[8] = test system: U251; assay: NCI-60 SRB screen; type: cell-based, human; conditions: Homo sapiens, U-251; U251; single dose 10^−5 M; read-out: Growth inhibition (%)
[9] = test system: MDA-MB-468; assay: NCI-60 SRB screen; type: cell-based, human; conditions: Homo sapiens; MDA-MB-468; single dose 10^−5 M; read-out: Growth inhibition (%)
[10] = test system: MCF7; assay: NCI-60 SRB screen; type: cell-based, human; conditions: Homo sapiens, MCF-7, single dose 10^−5 M, read-out: Growth inhibition (%)
[11] = test system: MDA-MB-231/ATCC; assay: NCI-60 SRB screen; type: cell-based, human; conditions: Homo sapiens, MDA-MB-231; MDAMB231/ATCC; single dose 10^−5 M; read-out: Growth inhibition (%)
[12] = test system: T-47D; assay: NCI-60 SRB screen; type: cell-based, human; conditions: Homo sapiens, T47D, single dose 10^−5 M, read-out: Growth inhibition (%)
[13] = test system: PC-3; assay: NCI-60 SRB screen; type: cell-based, human; conditions: Homo sapiens; PC-3; single dose 10^−5 M; read-out: Growth inhibition (%)
[14] = test system: BT-549; assay: NCI-60 SRB screen; type: cell-based, human; conditions: Homo sapiens; BT-549; single dose 10^−5 M; read-out: Growth inhibition (%)
[15] = test system: DU-145; assay: NCI-60 SRB screen; type: cell-based, human; conditions: Homo sapiens; DU-145; single dose 10^−5 M; read-out: Growth inhibition (%)

SMILES	inhibition at 10 µM [1] [%]	inhibition at 10 µM [2] [%]	inhibition at 10 µM [3] [%]	inhibition at 10 µM [4] [%]	inhibition at 10 µM [5] [%]	inhibition at 10 µM [6] [%]	melting point [°C]	inhibition at 10 µM [7] [%]	inhibition at 10 µM [8] [%]	inhibition at 10 µM [9] [%]	inhibition at 10 µM [10] [%]	inhibition at 10 µM [11] [%]	inhibition at 10 µM [12] [%]	inhibition at 10 µM [13] [%]	inhibition at 10 µM [14] [%]	inhibition at 10 µM [15] [%]
COc1ccc(C=C2Sc3c(F)cccc3C2=O)c(OC)c1 [Compound 2a, 2-(2,4-Dimethoxybenzylidene)-7-fluoro[1]benzothiophen-3(2H)-one]	-9.42	-0.64	-4.03	-27.9	12.6	-8.46	195 to 197	-2.1	-7.91							
O=C1C(=Cc2ccccc2[N+](=O)[O-])Sc2c(F)cccc21 [Compound 2c, 7-Fluoro-2-(2-nitrobenzylidene)[1]benzothiophen-3(2H)-one]		3.65	55.1	-3.1	-1.55	30.6	170 to 172	14.2	32.5							
O=C1NC(c2cccc([N+](=O)[O-])c2)c2sc3c(F)cccc3c2C1Cl (centres unmarked) [Compound 4d, 4-Chloro-8-fluoro-1-(3-nitrophenyl)-1,2-dihydro[1]benzothieno[2,3-c] pyridine-3(4H)-one]	-3.92		-0.03	-18.1		9.61	160 to 162			-8.27	8.44	5.22	8.7	3.8	3.62	-8.57
N#CC1C(=O)NC(c2cccc([N+](=O)[O-])c2)c2sc3c(F)cccc3c21 (centres unmarked) [Compound 5d, 4-Cyano-8-fluoro-1-(3-nitrophenyl)-1,2-dihydro[1]benzothieno[2,3-c] pyridin-3(4H)-one]	1.54		17.3	-7.73		14	180 to 182			-6.48	15.1	19.2	20.1	13.2	8.35	-10
CCN1CCN(C2C(=O)NC(c3cccc([N+](=O)[O-])c3)c3sc4c(F)cccc4c32)CC1 (centres unmarked) [Compound 6a, 4-(4-Ethylpiperazin-1-yl)-8-fluoro-1-(3-nitrophenyl)-1,2-dihydro[1]benzo thieno[2,3-c]pyridin-3(4H)-one]	-3.55		0.35	-24		4.93	240 to 241			-7.69	0.6	-0.79	-1.25	9.37	-0.58	-10.8
O=C1NC(c2cccc([N+](=O)[O-])c2)c2sc3c(F)cccc3c2C1N1CCOCC1 (centres unmarked) [Compound 6b, 8-Fluoro-4-morpholino-1(3-nitrophenyl)-1,2-dihydro[1]benzothieno[2,3-c]pyridin-3(4H)-one]	-6.35		13.5	6.95		14.4	250 to 251			-3.26	10.3	7.92	15.4	10.4	1.66	-9.4
O=[N+]([O-])c1cccc(C2NC(Cl)=C(Cl)c3c2sc2c(F)cccc32)c1 (centres unmarked) [Compound 7a, 3,4-Dichloro-8-fluoro-1-(3-nitrophenyl)-1,2-dihydro[1]benzothieno[2,3-c] pyridine]	3.21		3.36	7.81		11.5	120 to 122			-4.71	5.05	8.09	17.7	3.11	0.77	-4.75

— publication PMC8330742, “New benzothieno[2,3-c]pyridines as non-steroidal CYP17 inhibitors: design, synthesis, anticancer screening, apoptosis induction, and in silico ADME profile studies” (Journal of Enzyme Inhibition and Medicinal Chemistry, 2021)
